Test results taken from US12005051B2, “Topical roflumilast formulation having improved delivery and plasma half life” (ARCUTIS BIOTHERAPEUTICS, inc., priority 2017, dated 2024).
Where two headings read alike, the source gives them in different places.

Key:
[1] = design: species or system human; conditions: in vivo
Protocol: A parallel group, double blind, vehicle-controlled study was performed in which ARQ-151 cream 0.3% (Formulation 3 in Example 5) or ARQ-151 cream 0.15% (Formulation 7) or vehicle cream is applied QD for 84 days to subjects with chronic plaque psoriasis involving between 2 and 20% body surface area (BSA).
A total of approximately 300 subjects were enrolled at approximately 30 study sites in the United States and Canada. Subjects were adult (≥18 y/o) males or females with chronic plaque psoriasis. […] Subjects with an IGA of ‘Mild’ (2) were limited to 20% of total enrollment. Subjects with an IGA of ‘Severe’ (4) were limited to 15% of total enrollment. Subjects had at least 2% and no more than 20% Body Surface Area (BSA) of chronic plaque psoriasis. All psoriasis lesions on a subject were treated including the face, trunk, genitals/skin folds, or limbs (excluding the scalp). The palms and soles were treated but were not counted towards any measurements of efficacy (IGA, BSA, mPASI). For subjects with intertriginous area involvement, and with severity of the intertriginous area lesions at least ‘mild’ (IGA≥2) at Baseline, ‘I-IGA’ score was recorded at weeks 4, 6, 8 and 12. The same IGA used for the primary endpoint (whole body) was also used for ‘intertriginous area lesion IGA score’ (I-IGA), but only intertriginous areas were evaluated for I-IGA, not the rest of the body.
(§1) Blood samples were taken from all subjects at all sites as pre-dose on Day 1 (baseline) and Weeks 4 (Day 29) and 12 (Day 85). The analysis of the PK data collected was performed with a CFR 21 Part 11 compliant software package (Phoenix WinNonlin version 8.1) which is in full compliance with ICH-GCP. Samples from all subjects within the PK population were evaluated. Any subject or data excluded from the PK analysis were identified, along with the reason for exclusion in this PK report. BSA was averaged based on Baseline, Week 2, Week 4, Week 6 and Week 8 measured BSA values, the screening values, Week 12 and Week 16 values, and any other unscheduled visit values were excluded. Four subjects participated in an optional phase at the completion of the study to assess the elimination of roflumilast and the N-oxide at the end of treatment, however only three had quantifiable concentrations of roflumilast and the N-oxide. From the three subjects, the terminal rate constant (lambda z, λz) was determined by the slope of the regression line of the natural log transformed concentrations vs. time data. The terminal half-life (t½) was calculated as: In(2)/λz.
(§2) Concentration values that are reported BLQ (<0.100 for roflumilast and N-oxide) were reported as below limit of quantification (BLQ) in the concentration data listings and considered non-numerical. Nonnumerical values were ignored in the concentration by nominal time summary statistics. Summary statistics (i.e. N, arithmetic mean, SD, CV %, minimum, median, maximum, geometric mean, geometric SD, 95% confidence intervals for both the arithmetic mean and geometric mean) were calculated for plasma concentrations for each analyte, nominal day and dose strength. All concentration and descriptive statistic values were reported to three significant figures.

[2] = optional elimination phase assessment at end of treatment with ARQ-151 cream in psoriasis; assay type: in vivo, human; conditions: for half-life: human, plasma
Protocol: as §1, §2

[3] = cited from earlier work
[4] = roflumilast crystal size by polarized light microscopy, dry and after six weeks storage in solvent blends; assay type: physicochemical; conditions: for crystal width: six weeks at room temperature
[5] = clinical; conditions: human, in vivo, po
Protocol: In addition to the consistent delivery of a suspended active ingredient from a topical product, successful treatment also depends on the elimination kinetics of the active ingredient. After a drug is absorbed into a patient's body, elimination begins thereby reducing the concentration over time. The half-life determines the length of time that the drug will be effective. […] Since the maximum plasma concentration (11.4 ng roflumilast per mL plasma) occurs for roflumilast about 1 hour after oral dosing, mean plasma concentration at the time of the first missed dose (1 day after the most recent dose) will be approximately 5.7 ng/mL (half the 11.4 ng/mL maximum plasma concentration). […] For oral roflumilast, use of a sustained release oral drug delivery system instead of the immediate release tablet studied by Huang, would be an example of extrinsic PK property modification to increase the adherence imperfection forgiveness of the product that would benefit the patient that missed one or more doses of roflumilast.

[6] = cited from earlier work; for mean plasma half-life: multiple 0.375 mg doses, immediate release oral roflumilast
[7] = dissolution of roflumilast in solvents and solvent:water blends at 25° C.; assay type: physicochemical
Protocol: (§3) 0.0092 grams of roflumilast (Batch A14367P from Interquim S.A.) was weighed into a liquid scintillation vial. An equimolar blend of hexylene glycol (lot 1AC0818, Spectrum) and distilled water was added dropwise with mixing to the vial containing roflumilast to produce a suspension of roflumilast in excess of the solubility limit. An equimolar blend is 86.7% hexylene glycol and 13.3% water on a weight/weight percent basis. After mixing each addition of hexylene glycol:water blend, the tightly capped vial was returned to a water bath set at 25° C. It required 0.7962 grams of equimolar Hexylene Glycol:Water blend to completely dissolve the 0.0092 grams of roflumilast and give a 1.14% roflumilast in equimolar Hexylene Glycol:Water (wt/wt %) solution. 0.0064 grams of roflumilast was added to this sample (labeled 12-3) to form a finely dispersed suspension at 25° C. and the vial was then stored undisturbed at about 15-18° C., protected from the light for six weeks. A sample of the roflumilast crystals was removed from the vial, placed on a microscope slide (with coverslip) and then examined using polarized light microscopy using a 10× objective (FIG. 2, microscope sample 20-3).
0.0111 grams of roflumilast (Batch A14367P from Interquim S.A.) was weighed into a liquid scintillation vial. An equimolar blend of […] (Transcutol P, lot 146063, Gattefosse) and distilled water was added dropwise with mixing to the vial containing roflumilast to produce a suspension of roflumilast in excess of the solubility limit. An equimolar blend is 88.3% DEGEE and 11.7% water on a weight/weight percent basis. After mixing each addition of DEGEE:water blend, the tightly capped vial was returned to a water bath set at 25° C. It required 0.2477 grams of equimolar DEGEE:Water blend to completely dissolve the 0.0111 grams of roflumilast and give a 4.29% roflumilast in equimolar DEGEE:Water (wt/wt %) solution. This sample (labeled 13-1) was a solution of roflumilast at 25° C. and the vial was then stored undisturbed at about 15-18° C., protected from the light for six weeks. Roflumilast crystals precipitated due to the cooler storage temperature. A sample of the roflumilast crystals was removed from the vial, placed on a microscope slide (with coverslip) and then examined using polarized light microscopy using a 10× objective (FIG. 3, microscope sample 20-2).
as §3, with “4×” for “10×”, “4,” for “2,”
0.0180 grams of roflumilast (Batch A14367P from Interquim S.A.) was weighed into a liquid scintillation vial. Polyethylene glycol 400 (lot 1 DE0880, Spectrum) was added dropwise with mixing to the vial containing roflumilast to produce a suspension of roflumilast in excess of the solubility limit. After mixing each addition of polyethylene glycol 400, the tightly capped vial was returned to a water bath set at 25° C. […]

Which “mean N-oxide pre-dose plasma concentration relative to parent pre-dose plasma concentration” value [1] does the source give for O=C(Nc1c(Cl)c[n+]([O-])cc1Cl)c1ccc(OC(F)F)c(OCC2CC2)c1 [roflumilast N-oxide] here?
The value was 5.3-6.2 fold.

What about the “mean pre-dose plasma concentration, Day 29 versus Day 85” value [1] of the same compound?
Its value is no more than 2 fold.

What about the Half-life values ([2]; three subjects, end of treatment, topical ARQ-151) of the same compound?
The Half-life values was “around 3.6 days”.

Which plasma half-life ([3]; after intravenous administration in humans) does the source give for O=C(Nc1c(Cl)cncc1Cl)c1ccc(OC(F)F)c(OCC2CC2)c1 [roflumilast, N-(3,5-dichloropyrid-4-yl)-3-cyclopropylmethoxy-4-difluoromethoxybenzamid-e] here?
The plasma half-life was “about 15 hours”.

And the plasma half-life ([3]; after oral administration)?
Its plasma half-life is 17 to 30 h.

What about the “mean pre-dose plasma concentration, Day 29 versus Day 85” value ([1]; both, human) of the same compound?
Its value is no more than 2 fold.

And the “increase of roflumilast plasma pre-dose concentration between the 2-fold increase in dose strength” value ([1]; both, human, 29 day)?
Its value is “about 1.6 fold”.

And the “increase of roflumilast plasma pre-dose concentration between the 2-fold increase in dose strength” value ([1]; both, human, 85 day)?
Its value is “about 1.7 fold”.

And the crystal width ([4]; Sample 21-1, HG:NMP:Water (water mole fraction=1.2))?
The crystal width was 0.02 mm.

What about the crystal width ([4]; Sample 21-2, equimolar ethanol:water) of the same compound?
The crystal width was 0.02 mm.

What about the crystal width ([4]; Sample 21-3, equimolar PEG 400:water) of the same compound?
The crystal width was 0.02 mm.

What about the crystal width ([4]; Sample 21-5, equimolar propylene glycol:water) of the same compound?
Its crystal width is 0.02 mm.

What about the “roflumilast crystalline growth, comparison” value ([4]; equimolar N-methyl pyrrolidone:water compared to 12:4:3 (wt/wt/wt) hexylene glycol:N-methyl pyrrolidone:water) of the same compound?
Its value is “Dramatically greater roflumilast crystalline growth”.

What about the concentration at 1 day [5] of the same compound?
The concentration at 1 day was roughly 5.7 ng/mL.

And the concentration at 2 days [5]?
Its concentration at 2 days is roughly 2.8 ng/mL.

What about the concentration at 72 hours [5] of the same compound?
Its concentration at 72 hours is roughly 1.4 ng/mL.

What about the mean plasma half-life [6] of the same compound?
The mean plasma half-life was “about 1 day”.

And the mean plasma half-life ([6]; mean of 12 subjects)?
The mean plasma half-life was 25.6 h.

And the maximum plasma concentration ([6]; multiple 0.375 mg oral doses)?
Its maximum plasma concentration is 11.4 ng/mL.

What about the “time of maximum plasma concentration after oral dosing” value ([6]; multiple 0.375 mg oral doses) of the same compound?
Its value is “about 1 hour”.

And the half-life ([2]; topical or ocular, three subjects, end of treatment, topical ARQ-151, read-out: Half-life values (converted))?
The half-life was roughly 86.4 h.

What about the half-life ([2]; after topical administration of a formulation with self-emulsifying wax blend of dicetyl phosphate and ceteth-10 phosphate and a solvent, read-out: plasma half-life of roflumilast) of the same compound?
The half-life was 81.6 to 88.8 h.

What about the “storage time until fine roflumilast crystals were observed” value ([7]; 0.28% roflumilast, 88.97% propylene glycol, 10.75% water, initially clear solution, 25° C.) of the same compound?
Its value is 105 min.

And the “roflumilast concentration in solution” value ([7]; dimethyl sulfoxide, 25° C.)?
The value was 28.5%.

What about the “roflumilast concentration at complete dissolution” value ([7]; equimolar DEGEE:Water, 25° C.) of the same compound?
Its value is 4.29 wt/wt %.

And the “roflumilast concentration at complete dissolution” value ([7]; equimolar Hexylene Glycol:Water, 25° C.)?
Its value is 1.14 wt/wt %.

What about the “roflumilast concentration completely dissolved” value ([7]; equimolar N-Methyl-2 pyrrolidone:water, 25° C.) of the same compound?
Its value is 22.85%.

What about the “roflumilast concentration at complete dissolution” value ([7]; polyethylene glycol 400, 25° C.) of the same compound?
Its value is 3.18%.
